Experiment [1] has as its system PG16. As to the kind of experiment: Glycan microarray on NHS-coated glass slide, binding of PG16. Set-up: species or system human. The following applies: NHS-activated glass slide, glycans printed at 100 μM. The protocol:
To gain insights into the glycan specificities of these antibodies, the inventors used our newly developed array to profile the ligands of HIV-1 bNAbs. The synthetic N-glycan ligands were printed on NHS-activated glass slides through amide bond formation with 100 μM each of glycans 1-33 (FIG. 198). Each sample was printed with five replicates and slide images were obtained from a fluorescence scan after incubation with DyLight649-conjugated donkey anti-Human IgG antibody. […] Furthermore, PG9 and PGTs 141-145 were not detected to bind any of the glycans on the NHS array, probably due to their extremely weak binding. (FIGS. 203, 204A, 204B, 204C, 205A, 205B and 206).
a) Fabrication of N-hydroxy succinimide-coated glass slide: All monovalent glycans (G1-33) were prepared in 10 mM concentration individually and served as mother solutions which are to be diluted with printing buffer to prepare a working solution. […]
(§1) The slide was scanned at 635 nm with a microarray fluorescence chip reader (GenePix® 4300A, Molecular Devices Corporation). Scanned images were analyzed with GenePix Pro 6.0 analysis software (Molecular Devices Corporation,). […] The intensities was calculated and averaged. […]

The test system of experiment [2] is PGTs 141-144. The experiment is described as follows: Glycan array on ACG slide, binding of PGTs 141-144. Set-up: species or system human. Conditions: panel of glycans I-XI. The protocol:
To understand the exact glycan epitopes recognized by antibodies PGTs 141-145^20, a panel of glycans I-XI on the ACG slide was prepared for analysis.
b) Fabrication of aluminum oxide coated glass slide. The aluminum oxide glass substrate provides advantages for being able to be assessed by both mass spectrometry and fluorescence scanning. […] There are many reports describing the surface of micron to nano pore structures of anodized aluminum oxide. However, only a few articles have mentioned the initial planar layer of aluminum oxide16 during the treatment of surface anodization. In the development of AAO glass substrate, a computer experimental design program (Design Expert 8.0) has been used to optimize the planar layer of surface anodized aluminum oxide to be best used in glycan microarray 17.
Antibodies PG9, PG16 and PGTs 141-145 were diluted by binding buffer to 100 μg/mL prior to use. DyLight649-conjugated Donkey Anti-Human IgG antibody was then pre-complexed with primary antibodies. The final concentration of the precomplexed solution was adjusted to 50 μg/mL with binding buffer. […]
as §1

Experiment [3] addresses PG16. The experiment is described as follows: Determination of surface dissociation constants (KD,surf) on ACG slide. The experiment is classed as binding, human. An excerpt: (§2) To further understand why glycan binding to these bNAbs was not readily observed on the NHS-coated glass slides, the inventors conducted a specificity test with the ACG array. […] Therefore, the inventors can simply adjust the concentration of glycan to control the density and distance of glycans on the ACG surface. To prepare a representative ACG array, glycans I-XI (FIG. 5a) were linked to a phosphonic acid tail for spontaneous covalent immobilization on the ACG slide (Supplementary Scheme S21, as shown in FIG. 129). After incubation with a secondary antibody, the inventors determined the dissociation constant (KD.surf.)^59 of the glycans interacting with the antibody of interest. […]
(§3) b) Fabrication of aluminum oxide coated glass slide. The aluminum oxide glass substrate provides advantages for being able to be assessed by both mass spectrometry and fluorescence scanning. […]
The aluminum oxide coated glass slides for the determination of dissociation constants were spotted with 100 and 50 μM concentrations of glycans Man5GlcNAc2 (V), hybrid type (XI), bi-antennary complex type (XII), V+XI (1:1 mole ratio), V+XII, and XI+XII. […] Finally, slides were washed with PBST, spin dried and scanned at 450 nm with a microarray fluorescence chip reader. Scanned images were analyzed with GenePix Pro 6.0 analysis software. […]

Experiment [4] concerns PG9. The experiment is described as follows: Glycan array on aluminium oxide-coated glass (ACG) slide, homo- and mixed glycans, binding of PG9. Conditions: homogeneous array of glycans I-XI.
Description: To evaluate whether the ACG array format could enhance the detection sensitivity, the inventors performed a ligand specificity profiling at various concentrations of PG9. […] Previously, it was shown that PG9 required Man5GlcNAc2 at primary (Asn160) and secondary (Asn156 or Asn173) binding sites together with a short peptide strand in gp120 recognition^26, whereas the composition of glycan at Asn156 or Asn173 was defined as a complex-type glycan in later studies^30,31. In the present study, the strong PG9 interaction with the hybrid-type structure compared to both Man5GlcNAc2 and complex-type glycans indicated the presence of a hybrid-type glycan or an oligomannose and a complex-type glycan in close proximity as ligand(s).
To evaluate the glycan combination at Asn160 and Asn156/Asn173 of gp120 that best fits into the PG9 binding pocket, the inventors printed two different mixed-glycan arrays. […]
as §3, §1

In experiment [5] the test system is PG16. The experiment is described as follows: Glycan array on aluminium oxide-coated glass (ACG) slide, homo- and mixed glycans, binding of PG16. The following applies: 100 μM glycan or mixtures of IV and XI.
Description: as §2, with “interest. Using the ACG slide, the signal intensity was enhanced, as shown by the use of PG16 at 1 μg/mL on the ACG slide in comparison to 25 μg/mL used on the NHS-coated glass slide (FIG. 5b and Supplementary FIG. 199).” for “interest.”
as §3, §1

Entries after “also recorded” stand apart in the source; their conditions may differ.

For the molecule “5-Aminopentyl-di-[5-Acetamido-3,5-dideoxy-D-glycero-α-D-galacto-2-nonulopyrano-sylonate-(2→6)-β-D-galactopyranosyl-(1→4)-2-acetamido-2-deoxy-β-D-glucopyranosyl-(1→2)-α-D-mannopyranosyl]-(1→3),(1→6)-β-D-mannopyranosyl-(1→4)-2-acetamido-2-deoxy-β-D-glucopyranosyl-(1→4)-(α-L-fucopyranosyl-(1→6)-2-acetamido-2-deoxy-β-D-glucopyranoside [glycan 19]”, the “binding of PG16” value in experiment [1] was “not affected by the presence of the core fucose”.

For the molecule `CC(=O)N[C@H]1[C@H](O[C@H]2[C@H](O)[C@@H](NC(C)=O)C(O)O[C@@H]2CO)O[C@H](CO)[C@@H](O[C@@H]2O[C@H](CO[C@H]3O[C@H](CO[C@H]4O[C@H](CO)[C@@H](O)[C@H](O)[C@@H]4O[C@H]4O[C@H](CO)[C@@H](O)[C@H](O)[C@@H]4O)[C@@H](O)[C@H](O[C@H]4O[C@H](CO)[C@@H](O)[C@H](O)[C@@H]4O[C@H]4O[C@H](CO)[C@@H](O)[C@H](O)[C@@H]4O)[C@@H]3O)[C@@H](O)[C@H](O[C@H]3O[C@H](CO)[C@@H](O)[C@H](O)[C@@H]3O[C@H]3O[C@H](CO)[C@@H](O)[C@H](O)[C@@H]3O[C@H]3O[C@H](CO)[C@@H](O)[C@H](O)[C@@H]3O)[C@@H]2O)[C@@H]1O` (stereo partly shown) [Man9GlcNAc2], in experiment [2], the “binding of PGTs 141-144” value is recorded as “significant decrease in the affinity”.

By Kd is commonly meant the free concentration of one partner at which half of the binding sites on the other are occupied at equilibrium, for simple one-to-one binding. For `CC(=O)NC1C(O)[C@H](O[C@@H]2OC(CO[C@]3(C(=O)O)CC(O)[C@@H](NC(C)=O)C([C@H](O)[C@H](O)CO)O3)[C@H](O)C(O)C2O)C(CO)O[C@H]1OC1C(O)[C@H](O)C(CO)O[C@@H]1OC1C(O)[C@H](O[C@@H]2C(CO)O[C@@H](O[C@@H]3C(CO)O[C@@H](OCCNC(=O)OCCOCCOCCP(=O)(O)O)C(NC(C)=O)C3O)C(NC(C)=O)C2O)OC(CO[C@H]2OC(CO[C@H]3OC(CO)[C@@H](O)C(O)C3O)[C@@H](O)C(O[C@H]3OC(CO)[C@@H](O)C(O)C3O)C2O)[C@H]1O` (stereo partly shown) [X], the Kd in experiment [3] (read-out: KD (binding affinity of PG16)) was found to be 0.935 µM. Moreover, the “binding of PG9 to single glycans” value in experiment [4] is “apparent specificity; also recorded: significant enhancement in binding”.

For Man5GlcNAc2, the “binding of PG16” value in experiment [5] is listed as “unable to detect PG16 binding”; in experiment [1], “could not observe binding”. Besides, the “signal intensities for binding of PG16” value in experiment [3] (glycans spotted at 100 and 50 μM) is “too weak to determine the KD”.

The record behind these values is patent US10336784B2, “Methods for modular synthesis of N-glycans and arrays thereof” (Academia Sinica, priority 2016, dated 2019).
